Test results taken from ChEMBL document CHEMBL1201862, “PubChem BioAssay data set” (2004).
Activity calls are given as the source filed them.

Tests used:
[1] = target: T1, Tyrosine-protein phosphatase non-receptor type 22 (Homo sapiens, UniProt Q9Y2R2); type: functional
T1 sequence (Q9Y2R2 whole entry): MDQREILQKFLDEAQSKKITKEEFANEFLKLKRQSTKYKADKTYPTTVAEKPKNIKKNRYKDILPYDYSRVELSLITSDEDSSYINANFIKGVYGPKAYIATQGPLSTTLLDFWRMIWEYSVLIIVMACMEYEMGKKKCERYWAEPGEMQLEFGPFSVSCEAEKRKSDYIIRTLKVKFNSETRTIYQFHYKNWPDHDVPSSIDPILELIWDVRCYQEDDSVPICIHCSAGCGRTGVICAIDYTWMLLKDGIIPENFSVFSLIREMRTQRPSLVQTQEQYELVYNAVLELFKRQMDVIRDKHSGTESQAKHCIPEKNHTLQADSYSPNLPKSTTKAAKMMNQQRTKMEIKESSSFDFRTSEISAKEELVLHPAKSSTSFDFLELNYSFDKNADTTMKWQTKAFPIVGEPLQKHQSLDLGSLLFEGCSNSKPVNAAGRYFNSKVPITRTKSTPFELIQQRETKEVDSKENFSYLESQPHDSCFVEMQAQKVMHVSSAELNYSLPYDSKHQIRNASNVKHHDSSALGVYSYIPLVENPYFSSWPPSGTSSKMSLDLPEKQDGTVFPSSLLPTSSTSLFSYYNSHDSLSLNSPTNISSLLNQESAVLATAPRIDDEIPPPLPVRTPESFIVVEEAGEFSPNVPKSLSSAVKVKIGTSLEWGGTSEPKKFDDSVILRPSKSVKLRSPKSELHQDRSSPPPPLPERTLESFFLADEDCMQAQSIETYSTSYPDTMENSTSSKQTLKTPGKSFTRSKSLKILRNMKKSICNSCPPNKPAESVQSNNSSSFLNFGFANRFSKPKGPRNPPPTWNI

[2] = target: T1, Tyrosine-protein phosphatase non-receptor type 22; type: functional; remark: listed apart in the source
[3] = target: T2, Tyrosine-protein phosphatase non-receptor type 7 (Homo sapiens, UniProt P35236); type: functional
T2 sequence (P35236 whole entry): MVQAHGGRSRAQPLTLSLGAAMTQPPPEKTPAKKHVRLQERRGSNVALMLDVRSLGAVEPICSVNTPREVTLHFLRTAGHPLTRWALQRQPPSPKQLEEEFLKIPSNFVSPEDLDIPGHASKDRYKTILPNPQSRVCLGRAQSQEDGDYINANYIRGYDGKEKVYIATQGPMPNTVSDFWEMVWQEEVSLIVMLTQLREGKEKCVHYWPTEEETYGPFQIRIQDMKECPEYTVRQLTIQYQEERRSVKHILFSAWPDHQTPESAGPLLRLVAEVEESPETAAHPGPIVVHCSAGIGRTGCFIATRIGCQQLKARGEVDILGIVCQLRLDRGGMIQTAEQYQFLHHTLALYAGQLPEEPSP

cells = type: functional
[4] = target: T3, Replicative DNA helicase DnaB (Mycobacterium tuberculosis, UniProt P9WMR3); assay: DnaB intein splicing inhibitors, dose response, biochemical, cell-free fluorescence (AID 449749); type: functional
T3 sequence (P9WMR3 whole entry): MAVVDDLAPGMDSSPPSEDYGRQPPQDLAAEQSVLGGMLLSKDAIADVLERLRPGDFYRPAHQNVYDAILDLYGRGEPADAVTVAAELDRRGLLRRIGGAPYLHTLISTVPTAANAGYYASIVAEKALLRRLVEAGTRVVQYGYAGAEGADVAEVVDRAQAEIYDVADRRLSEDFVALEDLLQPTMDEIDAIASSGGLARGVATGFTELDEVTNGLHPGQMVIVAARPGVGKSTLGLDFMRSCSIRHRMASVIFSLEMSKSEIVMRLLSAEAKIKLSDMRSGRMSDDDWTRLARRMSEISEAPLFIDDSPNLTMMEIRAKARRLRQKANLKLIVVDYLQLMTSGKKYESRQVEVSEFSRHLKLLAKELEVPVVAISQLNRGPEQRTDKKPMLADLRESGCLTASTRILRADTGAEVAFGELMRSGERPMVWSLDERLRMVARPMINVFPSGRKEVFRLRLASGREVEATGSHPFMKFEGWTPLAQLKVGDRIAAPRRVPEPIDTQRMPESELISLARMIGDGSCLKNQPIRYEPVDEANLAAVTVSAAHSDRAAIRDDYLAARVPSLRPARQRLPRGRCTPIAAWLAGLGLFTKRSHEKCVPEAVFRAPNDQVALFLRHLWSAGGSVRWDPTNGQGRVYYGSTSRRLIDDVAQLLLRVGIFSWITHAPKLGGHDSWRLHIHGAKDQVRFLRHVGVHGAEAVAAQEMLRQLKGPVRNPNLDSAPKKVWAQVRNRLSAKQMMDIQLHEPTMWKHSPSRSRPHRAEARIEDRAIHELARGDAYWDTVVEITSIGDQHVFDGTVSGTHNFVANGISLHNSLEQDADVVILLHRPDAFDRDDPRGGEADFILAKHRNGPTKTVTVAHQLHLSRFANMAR

SUMO-activating enzyme [5] = target: T4, SUMO-activating enzyme (Homo sapiens, UniProt Q9UBT2); assay: blockers of SAE1/SAE2–UBC9 SUMO transfer – biochemical, HTRF, uHTS, primary screen (AID 2006); type: protein-complex assay
T4 sequence (Q9UBE0 whole entry): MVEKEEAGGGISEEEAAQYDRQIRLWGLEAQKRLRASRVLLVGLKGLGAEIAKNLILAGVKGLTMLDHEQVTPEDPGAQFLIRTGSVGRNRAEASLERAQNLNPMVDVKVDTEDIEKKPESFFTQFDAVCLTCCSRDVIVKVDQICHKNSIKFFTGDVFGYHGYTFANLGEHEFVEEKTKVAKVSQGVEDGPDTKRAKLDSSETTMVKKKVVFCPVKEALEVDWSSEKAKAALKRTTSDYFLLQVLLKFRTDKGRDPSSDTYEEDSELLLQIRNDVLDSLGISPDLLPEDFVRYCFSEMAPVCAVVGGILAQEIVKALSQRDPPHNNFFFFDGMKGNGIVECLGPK
T4 sequence (Q9UBT2 whole entry): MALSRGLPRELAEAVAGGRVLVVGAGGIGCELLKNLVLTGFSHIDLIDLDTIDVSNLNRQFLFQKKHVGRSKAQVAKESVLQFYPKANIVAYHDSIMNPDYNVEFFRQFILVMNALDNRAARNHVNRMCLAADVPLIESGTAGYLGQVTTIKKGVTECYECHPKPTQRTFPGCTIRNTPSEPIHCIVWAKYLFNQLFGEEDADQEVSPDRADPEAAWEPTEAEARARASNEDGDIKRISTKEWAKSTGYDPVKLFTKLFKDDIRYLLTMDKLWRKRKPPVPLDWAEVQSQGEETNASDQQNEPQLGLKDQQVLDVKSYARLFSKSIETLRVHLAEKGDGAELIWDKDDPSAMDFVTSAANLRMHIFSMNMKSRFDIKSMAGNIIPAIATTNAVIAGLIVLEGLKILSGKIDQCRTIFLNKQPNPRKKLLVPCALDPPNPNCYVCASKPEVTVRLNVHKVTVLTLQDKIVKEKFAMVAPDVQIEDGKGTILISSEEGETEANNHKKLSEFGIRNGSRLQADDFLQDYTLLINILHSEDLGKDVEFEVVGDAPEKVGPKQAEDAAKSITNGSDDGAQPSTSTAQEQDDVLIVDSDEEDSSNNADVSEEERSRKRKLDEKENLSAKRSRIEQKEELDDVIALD

Protein RecA = target: T5, Protein RecA (Mycobacterium tuberculosis, UniProt P9WHJ3); assay: Fluorescence Cell-Free Homogeneous Dose Retest to Identify Inhibitors of RecA-Intein Splicing Activity. [Related pubchem assays (depositor defined):AID2097, AID2223, AID489010, AID492950]; type: functional
T5 sequence (P9WHJ3 whole entry): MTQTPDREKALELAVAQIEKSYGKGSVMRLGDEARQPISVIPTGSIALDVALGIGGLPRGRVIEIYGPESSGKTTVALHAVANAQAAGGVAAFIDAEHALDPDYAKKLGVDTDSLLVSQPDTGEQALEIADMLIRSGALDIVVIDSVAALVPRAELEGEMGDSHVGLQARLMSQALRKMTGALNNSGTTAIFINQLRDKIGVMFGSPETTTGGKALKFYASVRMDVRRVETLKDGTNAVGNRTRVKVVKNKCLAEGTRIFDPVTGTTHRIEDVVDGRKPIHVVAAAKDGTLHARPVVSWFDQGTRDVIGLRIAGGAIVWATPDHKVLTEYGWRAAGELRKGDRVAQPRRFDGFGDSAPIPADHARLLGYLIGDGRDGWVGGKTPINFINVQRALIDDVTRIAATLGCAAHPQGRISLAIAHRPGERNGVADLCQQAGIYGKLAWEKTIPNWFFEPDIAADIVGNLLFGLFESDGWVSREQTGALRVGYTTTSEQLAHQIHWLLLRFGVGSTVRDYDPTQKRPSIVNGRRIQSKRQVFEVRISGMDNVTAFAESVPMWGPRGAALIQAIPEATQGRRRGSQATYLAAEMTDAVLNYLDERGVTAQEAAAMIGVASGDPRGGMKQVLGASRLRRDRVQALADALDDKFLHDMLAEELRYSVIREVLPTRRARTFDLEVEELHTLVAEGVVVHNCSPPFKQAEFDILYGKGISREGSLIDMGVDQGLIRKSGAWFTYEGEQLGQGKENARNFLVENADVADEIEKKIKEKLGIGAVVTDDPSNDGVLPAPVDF

Genome polyprotein = Genome polyprotein (dengue virus type 2, UniProt P29990); assay: flavivirus cap methylation enzyme inhibition – biochemical, confirmation dose response, primary screen (AID 588689); type: functional
Sequence of Genome polyprotein (P29990 2492-3391 limits assumed): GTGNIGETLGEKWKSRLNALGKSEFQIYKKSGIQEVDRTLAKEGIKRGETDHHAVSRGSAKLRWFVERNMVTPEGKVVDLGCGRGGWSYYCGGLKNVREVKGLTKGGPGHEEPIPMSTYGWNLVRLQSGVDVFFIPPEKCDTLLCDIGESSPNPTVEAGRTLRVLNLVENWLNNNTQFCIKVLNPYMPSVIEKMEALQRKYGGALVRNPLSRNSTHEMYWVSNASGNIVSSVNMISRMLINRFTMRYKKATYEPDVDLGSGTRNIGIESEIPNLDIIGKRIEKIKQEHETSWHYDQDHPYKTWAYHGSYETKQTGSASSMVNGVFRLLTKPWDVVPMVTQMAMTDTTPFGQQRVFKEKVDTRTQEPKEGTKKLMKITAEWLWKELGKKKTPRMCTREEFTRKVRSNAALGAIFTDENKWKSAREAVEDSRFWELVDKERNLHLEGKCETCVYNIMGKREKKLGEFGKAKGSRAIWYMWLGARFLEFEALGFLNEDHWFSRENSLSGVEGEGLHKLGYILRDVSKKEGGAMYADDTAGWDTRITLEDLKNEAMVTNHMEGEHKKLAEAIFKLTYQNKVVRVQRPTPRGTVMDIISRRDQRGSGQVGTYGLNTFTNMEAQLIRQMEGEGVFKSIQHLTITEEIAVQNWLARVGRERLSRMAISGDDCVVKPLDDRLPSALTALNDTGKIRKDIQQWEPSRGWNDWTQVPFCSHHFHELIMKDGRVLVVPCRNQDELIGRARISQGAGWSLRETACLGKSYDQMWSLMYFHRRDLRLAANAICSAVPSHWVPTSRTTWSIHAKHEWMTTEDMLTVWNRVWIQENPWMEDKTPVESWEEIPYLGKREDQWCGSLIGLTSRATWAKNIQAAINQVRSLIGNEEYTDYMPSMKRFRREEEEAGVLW

[6] = target: T6, Rac GTPase-activating protein 1 (Homo sapiens, UniProt Q9H0H5); assay: blockers of MgcRacGAP-driven Rac1 GTP hydrolysis – biochemical, ADP Hunter fluorescence, primary and confirmatory, confirmation (AID 624330); type: functional
T6 sequence (Q9H0H5 whole entry): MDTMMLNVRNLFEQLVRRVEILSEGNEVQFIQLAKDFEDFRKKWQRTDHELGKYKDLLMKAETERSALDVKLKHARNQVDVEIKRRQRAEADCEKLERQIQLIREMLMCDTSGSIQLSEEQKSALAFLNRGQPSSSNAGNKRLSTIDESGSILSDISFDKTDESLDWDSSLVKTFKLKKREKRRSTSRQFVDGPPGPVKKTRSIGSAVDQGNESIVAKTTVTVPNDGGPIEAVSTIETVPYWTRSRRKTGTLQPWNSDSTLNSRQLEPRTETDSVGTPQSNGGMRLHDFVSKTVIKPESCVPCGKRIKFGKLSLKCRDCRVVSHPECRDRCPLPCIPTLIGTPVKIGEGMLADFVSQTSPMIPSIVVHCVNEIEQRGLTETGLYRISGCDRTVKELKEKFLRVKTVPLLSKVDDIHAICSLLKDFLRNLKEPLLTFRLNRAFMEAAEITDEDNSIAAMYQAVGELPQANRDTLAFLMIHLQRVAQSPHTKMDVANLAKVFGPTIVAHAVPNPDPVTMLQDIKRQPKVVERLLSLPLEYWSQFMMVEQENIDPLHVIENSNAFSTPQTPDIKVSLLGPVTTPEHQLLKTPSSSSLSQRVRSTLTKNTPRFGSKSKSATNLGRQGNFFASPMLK

SUMO-activating enzyme [7] = target: T4, SUMO-activating enzyme; assay: blockers of UBC9-mediated SUMO conjugation – biochemical, AlphaScreen, SUMOylation inhibitor project, confirmation (AID 2018); type: functional
[8] = target: T7, Microphthalmia-associated transcription factor (Homo sapiens, UniProt O75030); assay: reducers of TRPM1 reporter luminescence, concentration series – cell-based, SK-MEL-5, cherry-picked, set 3, MITF inhibitor project, dose response (AID 493073); type: functional;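 further: SK-MEL-5 melanoma cells with luciferase driven by the MITF target TRPM1 promoter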
T7 sequence (O75030 whole entry): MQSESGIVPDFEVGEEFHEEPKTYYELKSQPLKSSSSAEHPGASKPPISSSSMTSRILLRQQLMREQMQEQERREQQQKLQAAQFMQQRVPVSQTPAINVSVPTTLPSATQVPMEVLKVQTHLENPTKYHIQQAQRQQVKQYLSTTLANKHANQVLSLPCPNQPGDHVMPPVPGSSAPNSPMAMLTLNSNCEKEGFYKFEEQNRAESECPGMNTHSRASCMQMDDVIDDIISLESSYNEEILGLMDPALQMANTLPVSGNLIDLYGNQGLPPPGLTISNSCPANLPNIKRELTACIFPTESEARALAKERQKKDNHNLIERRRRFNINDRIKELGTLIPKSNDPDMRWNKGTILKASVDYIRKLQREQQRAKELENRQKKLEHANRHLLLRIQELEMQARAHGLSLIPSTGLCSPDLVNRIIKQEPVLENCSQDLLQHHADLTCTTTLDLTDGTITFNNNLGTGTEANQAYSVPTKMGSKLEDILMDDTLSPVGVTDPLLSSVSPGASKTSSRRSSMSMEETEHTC

A-375 = assay: MITF: Counter assay: A375 proliferation Measured in Cell-Based System Using Plate Reader - 2084-03_Inhibitor_Dose_DryPowder_Activity. [Related pubchem assays (depositor defined):AID488944]; type: functional; details: Homo sapiens
[9] = target: Glucose-6-phosphate 1-dehydrogenase (Homo sapiens, UniProt P11413); assay: inhibition of Homo sapiens G6PD, dose series – biochemical, fluorescence, selectivity assay for P. falciparum G6PD inhibitor project, dose response (AID 504792); type: functional
Sequence of Glucose-6-phosphate 1-dehydrogenase (P11413 whole entry): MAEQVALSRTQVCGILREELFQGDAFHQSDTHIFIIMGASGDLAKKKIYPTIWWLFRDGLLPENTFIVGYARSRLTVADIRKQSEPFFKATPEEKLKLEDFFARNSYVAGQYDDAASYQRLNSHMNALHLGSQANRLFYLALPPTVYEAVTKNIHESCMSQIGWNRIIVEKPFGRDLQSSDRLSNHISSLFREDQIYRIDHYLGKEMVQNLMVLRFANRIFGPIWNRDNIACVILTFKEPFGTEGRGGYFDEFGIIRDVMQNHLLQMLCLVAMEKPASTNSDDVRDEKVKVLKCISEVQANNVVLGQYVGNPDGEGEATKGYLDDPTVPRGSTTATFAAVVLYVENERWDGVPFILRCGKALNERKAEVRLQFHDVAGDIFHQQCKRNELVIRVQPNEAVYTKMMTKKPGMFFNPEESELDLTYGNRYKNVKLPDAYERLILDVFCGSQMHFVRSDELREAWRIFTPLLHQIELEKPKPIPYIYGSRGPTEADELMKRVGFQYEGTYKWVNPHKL

[10] = target: T8, Corticotropin-releasing factor receptor 2/Corticotropin-releasing factor-binding protein (Homo sapiens, UniProt P24387+Q13324); assay: activators of CRF receptor 2 with binding protein – uHTS hits, confirmation (AID 602473); type: functional; details: read-out: EC50_Mean
T8 sequence (Q13324 whole entry): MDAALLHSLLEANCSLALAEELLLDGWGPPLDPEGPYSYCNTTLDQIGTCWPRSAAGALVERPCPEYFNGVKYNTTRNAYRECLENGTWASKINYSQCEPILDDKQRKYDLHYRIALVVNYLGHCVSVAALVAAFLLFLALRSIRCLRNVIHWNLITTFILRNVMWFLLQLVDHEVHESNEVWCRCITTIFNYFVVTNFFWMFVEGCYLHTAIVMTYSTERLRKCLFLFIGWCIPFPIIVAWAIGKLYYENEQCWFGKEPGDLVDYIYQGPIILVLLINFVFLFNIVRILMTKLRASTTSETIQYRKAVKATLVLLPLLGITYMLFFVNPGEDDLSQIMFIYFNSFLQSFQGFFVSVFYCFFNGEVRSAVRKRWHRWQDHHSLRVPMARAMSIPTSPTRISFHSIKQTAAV
T8 sequence (P24387 whole entry): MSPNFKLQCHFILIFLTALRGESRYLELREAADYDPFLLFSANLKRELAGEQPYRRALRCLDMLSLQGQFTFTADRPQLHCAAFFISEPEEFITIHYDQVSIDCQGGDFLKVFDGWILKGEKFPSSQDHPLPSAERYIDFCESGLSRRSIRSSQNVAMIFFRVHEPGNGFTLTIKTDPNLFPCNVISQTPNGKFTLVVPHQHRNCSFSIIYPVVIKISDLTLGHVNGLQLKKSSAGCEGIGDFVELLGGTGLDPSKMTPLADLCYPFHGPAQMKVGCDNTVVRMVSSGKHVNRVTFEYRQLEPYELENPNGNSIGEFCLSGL

| SMILES | AC50 [4] | IC50 (SUMO-activating enzyme [5]) | EC50 (Protein RecA) | IC50 (SUMO-activating enzyme [7]) | AC50 [8] | AC50 (A-375) | other results |
| --- | --- | --- | --- | --- | --- | --- | --- |
| CCOc1ccccc1NC(=O)CSc1nnc(Cc2cccn2C)n1-c1ccc(F)cc1 |  |  |  |  |  |  | IC50 [1]: > 79.4 µM (inactive); IC50 [2]: > 79.4 µM (inactive); IC50 [3]: > 79.4 µM (inactive) |
| CC1=NN(c2ccc(C(=O)O)cc2)C(=O)/C1=C\c1ccc(OC(=O)c2cccs2)cc1 | 2.08 µM (active) | 57.7 µM (active) | 1.9 µM (active) | 7.86 µM (active) |  |  | IC50 (cells): 15.1 µM (active); IC50 (Genome polyprotein): 15.6 µM (active); IC50 [6]: 185 µM (active) |
| CN(C)c1ccc(/C=C(\C#N)c2ccccn2)cc1 |  |  |  |  | 6.32 µM (active) | 45.2 µM (active) |  |
| N#Cc1ccc(N=c2ssnc2Cl)cc1 |  |  |  |  |  |  | IC50 [9]: 48.3 µM (inactive) |
| CCOC(=O)/C=c1/s/c(=C/c2ccc3cc(OC)ccc3c2)c(=O)n1CC(=O)NCC1CCCO1 (stereo not given) |  |  |  |  | 6.79 µM (active) | 29.7 µM (active) | EC50 [10]: 7.75 µM (active) |
| Cc1nn(-c2ccc(Cl)cc2)c(O)c1C(c1cccc(O)c1)c1c(C)[nH]n(-c2ccc(Cl)cc2)c1=O (stereo not given) | 1.36 µM (active) | 47.8 µM (active) | 0.897 µM (active) | 4.08 µM (active) |  |  |  |
